For the experiment, the system named is ARE genes Nqo1, Hmox1, Gclc. The experiment in a line: qPCR of ARE target genes in corticostriatal co-cultures. The class given is cell-based, mouse. The settings on record: 6 hr. As for the experimental part: Primary corticostriatal neuronal co-cultures were prepared from E18 mouse brains as previously described [Kaltenbach, 2010]. Mice were maintained in accordance with Duke University Medical Center Institutional Animal Care and Use Committee guidelines. For 5×-ARE-luciferase reporter assays, neurons were transfected following their isolation (Nucleofector, Lonza) with 2.5 μg Cignal Antioxidant Response Reporter dual luciferase plasmids (Qiagen/SABiosciences) and plated onto pre-established glial beds in 96 well plates. After 4 days in culture at 37° C. under 5% CO2, co-cultures were treated with the indicated compounds for 4 hr or 16 hr then harvested and read for luminescence from firefly and Renilla luciferases according to the Dual Glo luciferase protocol (Promega) using a SpectraMaxL luminometer (Molecular Devices). Each sample was measured in technical triplicate. For quantitative RT-PCR (qPCR) of ARE target genes, corticostriatal co-cultures were prepared as described above and, after 4 days in culture, treated for 6 hr with the indicated compounds followed by RNA harvesting according to the Absolutely RNA miniprep protocol (Agilent Technologies). Purified RNA was converted to cDNA using random hexamers and SuperScript First-Strand RT-PCR Synthesis (Invitrogen). […] Ct values were determined using primer sets against ARE genes Hmox1, Gclc and Nqo1]. […]
(In general: Quantitative PCR measures a nucleic acid by following its amplification.)

On to `O=[N+]([O-])c1ccc(Sc2nnc(COc3ccccc3)n2-c2ccccc2)nc1` [MIND4-17], for which the “Expression of ARE genes Nqo1, Hmox1” value is recorded as “increased the expression of the canonical ARE genes Nqo1, Hmox1” and the “Expression of Gcic” value was approximately 2 fold.
